Measured values from US20080027022A1, “METHOD TO TREAT GASTRIC LESIONS” (priority 2006, published 2008).

Legend:
Format in all cases: in vivo, rat
myeloperoxidase (MPO) = experiment: Myeloperoxidase (MPO) concentration in the gastric mucosa after aspirin; conditions: rats, 3 h after aspirin, normal 2.8±0.2, vehicle 13.8±1.2, P<0.001
Procedure: An assay of gastric mucosal myeloperoxidase concentration was applied to quantify the degree of neutrophil infiltration. Three hundred milligrams of scraped mucosa was homogenized for 30 sec with a polytron homogenizer (PT 1200, KInematica AG, Littau, Switzerland) in 1.0 ml of ice-cold 0.5% hexadecyliltrimethylammonium bromide in 50 mM phosphate buffer (pH 6.0). Hexadecyliltrimethylammonium bromide is used to negate the pseudoperoxidase activity of hemoglobin and to solubilize membrane-bound MPO. The homogenate was sonicated (U50 IKA Werke Grm1H and Co. KG, Staufen, Germany) for 10 seconds, freeze-thawed three times and centrifuged for 20 minutes at 18,000 g. The supernatant was taken for determination of the enzyme activity utilizing an ELISA kit (Bioxytech, Oxis International, Inc. Portland, Oreg., USA). The change in absorbance at 405 nm was measured with a spectrophotometer (Microplate reader model 3550, Bio-Rad, Hercules, Calif., USA). The concentration of myeloperoxidase was expressed as nanogram per mg protein measured using Bradford's method.

[1] = tested on: Aspirin-induced gastric injury; experiment: Aspirin-induced gastric mucosal injury model (ulcer index); conditions: rats, 3 h after aspirin, control 29.8±7.7
Procedure: Male Sprague-Dawley rats weighting 250-300 g were fed a standard laboratory diet and water ad libitum, and kept in cages in a temperature and humidity controlled room with a 12 hour dark-light cycle before and during the experiment. Prior to administration of aspirin, animals were deprived of food for 24 hours but had free access to water. This experimental protocol was approved by the Akita University Animal Care Committee. Aspirin-induced gastric injury was produced by intragastric administration of aspirin (200 mg/kg) and HCl (0.15 N, 8 ml/kg). ATL-146e (2.5 or 5 μg/kg, n=5 in each dose) or vehicle was injected intraperitoneally 30 minutes prior to aspirin administration. The animals were sacrificed by stunning and cervical dislocation 3 hours after aspirin administration and the stomach was removed. Gastric mucosal lesions were measured by two independent observers blinded to the treatment. The ulcer index was calculated as the sum of the lengths of all lesions.

IL-1β = experiment: Gastric mucosal concentration of IL-1β after aspirin (ELISA); conditions: rats, gastric mucosa, 3 h after aspirin
Procedure: (§1) One hundred milligrams of scraped mucosa was homogenized for 30 sec with a polytron homogenizer (PT 1200, KInematica AG, Littau, Switzerland) in 1.0 ml of ice-cold potassium phosphate buffer (pH 7.4). Following centrifugation at 10,000 g for 10 minutes, aliquots of homogenate supernatants in PBS were obtained by centrifugation (10,000 g for 10 minutes). The total protein was measured by Bradford's method. The concentration of TNF-α and IL-1β in the supernatant of mucosal homogenates was determined by ELISA (R&D systems Inc., Minneapolis, Minn., USA) according to the manufacture's instruction. After color development, optimal density was measured with microplate reader. The concentration of TNF-α and IL-1β were expressed as pictogram/mg protein.

gastric acid secretion = experiment: Gastric secretion, pylorus-ligation method; conditions: rats, 5 μg/kg i.p., 3 h
Procedure: Gastric juice was collected using the pylorus-ligation method. Briefly, rats were fasted for 24 hours, placed in restraint cages, and injected intraperitoneal with 5 μg/kg of ATL-146e. Thirty minutes after injection, pylorus ligation was performed. The stomach was removed 3 hours after pylorus ligation, and the gastric contents were collected. Following centrifugation the acid content of the supernatant was determined by titration with 0.01 mol NaOH to pH 7.0 using pH meter (f50 pH Meter; Beckman, Tokyo, Japan), and used to calculate gastric acid secretion in mEq/3 h.

PGE2 = experiment: Mucosal content of PGE2 (radioimmunoassay)
Procedure: A part of fundic mucosa (about 100 mg) was excised for determination of PGE2 synthesis. The samples were weighed, finely minced with scissors for 15 sec, then suspended in 1.0 ml of 10 mM sodium phosphate buffer (pH 7.4). The samples were then incubated in a shaking bath (37°) for 29 min followed by centrifugation (9000 g for 30 sec). The supernatant was frozen and subsequent determination of PGE2 was performed by radioimmunoassay using PGE2 [125I] RIA kit (Dupont/NEN, Boston, Mass., USA).

TNF-α = experiment: Gastric mucosal concentration of TNF-α after aspirin (ELISA); conditions: rats, gastric mucosa, 3 h after aspirin
Procedure: as §1

Row | SMILES | MPO concentration in the gastric mucosa (myeloperoxidase (MPO); 2.5 μg/kg pretreatment) [μg/g protein] | MPO concentration in the gastric mucosa (myeloperoxidase (MPO); 5 μg/kg pretreatment) [μg/g protein] | ulcer index (total length of gastric erosions) ([1]; 2.5 μg/kg i.p. 30 min before aspirin 200 mg/kg + HCl, P<0.05) [mm] | ulcer index (total length of gastric erosions) ([1]; 5.0 μg/kg i.p. 30 min before aspirin 200 mg/kg + HCl, P<0.01) [mm] | reduction of the increase in IL1-β above control levels caused by aspirin (IL-1β; 2.5 μg/kg) [%] | reduction of the increase in IL1-β above control levels caused by aspirin (IL-1β; 5 μg/kg) [%] | increase in gastric acid output (gastric acid secretion; P<0.05) | gastric acid output (gastric acid secretion; without compound 114, P<0.05) [mmolq/3 h] | effect on the reduction of gastric PGE2 concentration induced by aspirin (PGE2; rats, 5 μg/kg before aspirin 200 mg/kg, P>0.05 vs. aspirin alone) | reduction of the increase in TNF-α above control levels caused by aspirin (TNF-α; 2.5 μg/kg) [%] | reduction of the increase in TNF-α above control levels caused by aspirin (TNF-α; 5 μg/kg) [%] | reduction of PGE2 concentration vs vehicle-treated rats (PGE2; aspirin 200 mg/kg alone, P<0.05) [%] | concentration of PGE2 in gastric mucosa (PGE2; rats, aspirin 200 mg/kg alone (group C), vehicle-treated 255.3±64.7) [ng/g]
1 | CCNC(=O)C1OC(n2cnc3c(N)nc(C#CCC4CCC(C(=O)OC)CC4)nc32)C(O)C1O (stereo not shown) [ATL-146e, 4-{3-[6-Amino-9-(5-ethylcarbamoyl-3,4-dihydroxy-tetrahydro-furan-2-yl)-9H-purin-2-yl]-prop-2-ynyl}-cyclohexanecarboxylic acid methyl ester] | 2.9±0.35 | 2.7±0.14 | 7.0±2.34 | 3.1±1.42 | 64.0 | 97.2 | threefold | 326 | did not interfere with the reduction of gastric PGE2 concentration induced by aspirin | 90.3 | 99.7 |  | 
2 | CC(=O)Oc1ccccc1C(=O)O [aspirin, acetylsalicylic acid] |  |  |  |  |  |  |  |  |  |  |  | 82.3 | 47.4 ± 5.6
